Patent US6653319B1, “Pharmaceutical formulation for poorly water soluble camptothecin analogues” (University of Kentucky Research Foundation, priority 2001, dated 2003)
Values after ≈ are worked out from the molar mass of the structure shown. “Also recorded” adds a separate entry of the source.

How the values were obtained:
[1] = compared with FDA approved camptothecin analogs (Camptosar and Hycamtin); cited from earlier work
[2] = Solubility method to determine complex formation constants with HP-CD; format: physicochemical
Description: (§1) To understand the complexation mechanisms behind this solubilization effect, a solubility method was employed to determine the formation constant between a camptothecin analogue and a cyclodextrin derivative. In the solubility experiment, the solution pH was controlled below 4.6 with a 30 mM citrate buffer.
(§2) In the limit of [CD]>>So, the relevant formation constants can be expressed as: […]
(§3) where So is the solubility in the absence of cyclodextrins, Kf^1:1 and Kf^1:2 are the 1:1 and 1:2 complex formation constants, and [CD] is concentration of cyclodextrin. A linear least-squares fit of the data for SBE-CD as shown in FIG. 3 yields the complex formation constant of Kf^1:1=8.5±0.2×10^3M^−1(r^2=0.999). […] The inability for SBE-CD to form 1:2 complexes with DB-67 apparently arises from the presence of an average of seven negatively charged sulfobutyl ether groups in a SBE-CD molecule preventing the approach of two SBE-CDs to each other to form 1:2 complexes. A least-squares fit of the data for HP-CD as shown in FIG. 3 according to Equation 1 yields the 1:1 and 1:2 complex formation constants of Kf^1:1=5.8±0.2×10^3M^−1 and […]±0.2 ×10^4M^−1(r^2=1.000).

[3] = Reaction kinetics of lactone-ring opening and closing (hydrolysis) in aqueous solution by HPLC; format: physicochemical
Description: The reaction kinetics for the E-ring opened and closed DB-67 were investigated in aqueous solutions at pH 7.4 and 4.0, respectively. The reactions were thermostated at 25±0.1° C. by a circulation water bath and initiated by adding 0.1 mL of reactants (Species I DB-67 in DMSO or Species II DB-67 in 2 mM NaOH; see FIG. 1) to a 30 mM phosphate or acetate buffer solution with an initial reactant concentration of 2-4×10^−6 M. After the addition and at different time intervals, aliquots of the reaction solutions were withdrawn and immediately assayed by HPLC. The concentrations of both species I and II were monitored in order to evaluate the mass balance and other possible degradation products. Simultaneous non-linear least-squares fits of the kinetic profiles yield the first-order rate constants for the lactone-ring opening and closing processes of kopen=1.1±0.1×10^−4 s^−1 and kclose=3.3±0.3×10^−4 s^−1.
We have also investigated the hydrolysis processes for the lactone-ring intact DB-67 (Species I) at pH 7.4 in the presence of 20% (w/v) SBE-CD and HP-CD, respectively. […] The fitted rate constants are kopen=(7.1±0.1)×10^−5s^−1 and kopen=(6.2±0.1)×10^−5s^−1 for 20% (w/v) SBE-CD and HP-CD, respectively. As noted above, the presence of 20% (w/v) SBE-CD or HP-CD reduces the rate for the lactone-ring opening process by 1.6- and 1.8-fold, respectively. The rate reduction is therefore more marked in the presence of HP-CD.

[4] = Solubilities of DB-67 in various solvent systems at 25° C. (excess drug, filtration, HPLC); format: physicochemical
Description: Solubilities of DB-67 or camptothecin in a given solvent system were determined by adding an amount of the drugs well in excess of its estimated solubility to 1-2 mL of the desired solvent in a 4-mL glass vial. The capped vial was rotated in a VWR2010 incubator set at 25° C. for a period of 3-15 days. The sample was then passed through a 0.45 μm filter, except for liposome or emulsion samples, which were passed through a 1.2 μm filter. The collected sample was weighed, diluted with methanol, and analyzed by HPLC. The HPLC system consisted of a Discovery C18 15 cm×4.6 mm column and a Discovery C18 2 cm×4.6 mm 5 μm guard column (Supelco), a Beckman 110B solvent delivery module, a Rheodyne M7125 injector with a […] (Rainin), a Waters M2487 Dual λ Absorbance detector set at 254 nm, an HP 3392A integrator, and a mobile phase of 25% and 41% (v/v) acetonitrile in 2% (w/v) triethylamine acetate for camptothecin and DB-67, respectively.
The solubility-pH profile for DB-67 in aqueous solution is presented in FIG. 2, where the curve is a […] using an equilibrium model for the base-catalyzed lactone-ring opening and ionization of substituents in DB-67 (10-OH and the —COOH when the lactone-ring is opened at a basic pH).

[5] = Solubility method to determine complex formation constant with SBE-CD; format: physicochemical
Description: as §1, §2, §3

[6] = format: physicochemical
Description: A successful pharmaceutical formulation with a supersaturated drug concentration requires a physical stability with respect to drug precipitation. In our first attempt, 20-25 mg/mL of DB-67 was loaded in DMSO because of the drug's high solubility in this solvent. The dissolved DB-67 was then added slowly to a 20% (w/v) SBE-CD aqueous solution by a volume ratio of 1:9 to achieve a final drug concentration of 2 mg/mL. The dilution rate was maintained at 0.10 mL/min. […] A proper control of the release pattern (local or uniform) and rate of DB-67 into the dilution medium is therefore critical to the success of this type of formulation approach.
As described above, a slow and uniform release of DB-67 into a dilution medium may be accomplished by employing a chemical approach, namely by converting the E-ring opened DB-67 (Species II, see FIG. 1), which is highly water-soluble, to the neutral E-ring closed DB-67 (Species I) in a controlled fashion. […] Accordingly, 20 mg/mL of DB-67 was loaded in a sodium hydroxide solution with NaOH concentration maintained at twice that of the drug concentration. The prepared DB-67 alkaline aqueous solution was passed through a 0.2 μm filter before it was added slowly (0.11 mL/min) into 20% (w/v) acidic SBE-CD solution by a volume ratio of 1:9. In order to completely neutralize DB-67, HCl was present in the dilution solution in an amount equal to the amount of NaOH in the DB-67 alkaline solution. A small amount of acetate buffer (5 mM) was also included in the dilution medium to control the solution pH to about 4 in order to facilitate a timely conversion from the E-ring opened DB-67 to its E-ring closed counterpart.
Shortly after the lyophilization, the lyophilized sample was reconstituted and the stability of the reconstituted solution was examined following the same procedure as described above.
The precipitation profiles of DB-67 solutions containing other solubilizing agents such as liposomes and an acidic aqueous cosolvent solution comprising an equal volume mixture of ethanol and cremophor, prepared as described in Examples 3 and 4, respectively, were evaluated.

[7] = HP-CD, E-ring closed DB-67, pH below 4.6, 30 mM citrate buffer, fit to Equation 1

SMILES: CC[C@@]1(O)C(=O)OCc2c1cc1n(c2=O)Cc2c-1nc1ccc(O)cc1c2[Si](C)(C)C(C)(C)C [DB-67, 7-t-butyldimethylsilyl-10-hydroxycamptothecin]
- potency in in vitro cytotoxicity assays [1]: comparable potency to other FDA approved camptothecin analogs
- DB-67 included in the CD hydrophobic cavity ([2]; 20% (w/v) HP-CD): more than 99.9%
- complexes in the form of 1:2 complexes ([2]; 20% (w/v) HP-CD): roughly 46%
- 1:1 complex formation constant Kf^1:1 [2, 7]: 5.8±0.2×10^3 M^−1
- 1:2 complex formation constant (printed as Kf^1:1) [2, 7]: 3.8±0.2 ×10^4 M^−1
- reduction in the observed rate constant ([3]; 20% (w/v) HP-CD, pH 7.4): approximately 44%
- reduction of the rate for the lactone-ring opening process ([3]; 20% (w/v) HP-CD, pH 7.4): 1.8 fold
- reduction of the rate for the lactone-ring opening process ([3]; 20% (w/v) SBE-CD, pH 7.4): 1.6 fold
- first-order rate constant for lactone-ring closing kclose ([3]; pH 4.0, 30 mM buffer, 25° C., no cyclodextrin): 3.3±0.3×10^−4 s^−1
- first-order rate constant for lactone-ring opening kopen ([3]; pH 7.4, 30 mM buffer, 25° C., no cyclodextrin): 1.1±0.1×10^−4 s^−1
- rate constant kopen ([3]; pH 7.4, in the presence of 20% (w/v) HP-CD): (6.2±0.1)×10^−5 s^−1
- rate constant kopen ([3]; pH 7.4, in the presence of 20% (w/v) SBE-CD): (7.1±0.1)×10^−5 s^−1
- S (solubility) ([4]; 5% Cremophor, 5% (v/v) in 5% (w/v) Dextrose/Water, 25° C., single sample): 200 µg/mL
- S (solubility) ([4]; 10% (v/v) PEG-400/water, 25° C.): (3.3 ± 0.5) × 10^−2 mg/mL
- S (solubility) ([4]; 40% (w/v) HPCD/water, 25° C.): (4.9 ± 0.2) × 10^−1 mg/mL
- S (solubility) ([4]; 40% (w/v) SBE-CD/water/1 mM HCl, 25° C.): (2.09 ± 0.04) × 10^−1 mg/mL
- S (solubility) ([4]; 40% PG, 10% (v/v) EtOH/water, 25° C.): (1.73 ± 0.04) × 10^−1 mg/mL
- S (solubility) ([4]; 50% (v/v) PEG-400/water, 25° C.): (2.0 ± 0.3) × 10^−1 mg/mL
- S (solubility) ([4]; 50% Cremophor, 50% (v/v) EtOH (Diluent-12), 25° C.): (7.5 ± 0.2) × 10^0 mg/mL
- S (solubility) ([4]; Emulsion (20% soybean oil, 2% glycerin, 73% water, 4% Tween80, 1% eggPC), 25° C.): (2.06 ± 0.05) × 10^−1 mg/mL
- S (solubility) ([4]; Liposome (70:25:5 (mole) DMPC:Chol:DMPG), 25° C.): (7.4 ± 0.3) × 10^−3 mg/mL
- S (solubility) ([4]; Water/30 mM acetate buffer at pH 5.23, 25° C.): (1.11 ± 0.00) × 10^−5 mg/mL
- S (solubility) ([4]; Water/0.5 M carbonate buffer at pH 10.20, 25° C., single sample): 178 µg/mL
- solubility in an aqueous solution of acidic pH ([4]; pH 5.2, DB-67 mostly in E-ring intact form): 0.11 μg/mL
- solubility in an aqueous solution ([4]; pH >10.2, mostly lactone-ring opened form): ~18000 µg/mL (≈ 37.6 mM)
- DB-67 bound to SBE-CD ([5]; 20% (w/v) SBE-CD, predominantly 1:1 complexes): more than 99.8%
- 1:1 complex formation constant Kf^1:1 ([5]; SBE-CD, neutral E-ring intact DB-67, pH below 4.6, 30 mM citrate buffer, linear fit r^2=0.999): 8.5±0.2×10^3 M^−1
- overall DB-67 concentration in the solution over time ([6]; 2 mg/mL DB-67, 1:9 dilution of alkaline solution into 20% (w/v) acidic SBE-CD, pH 4.4): remained constant over an extended period of three days
- time for conversion to E-ring closed DB-67 to be nearly complete ([6]; 20% (w/v) SBE-CD, measured solution pH 4.4): ≤ 100 min
- precipitation on mechanical mixing of DB-67 in DMSO with 20% (w/v) SBE-CD ([6]; lactone-intact DB-67 in DMSO diluted into 20% (w/v) SBE-CD aqueous solution, final concentration >1 mg/mL (2 mg/mL, 1:9, 0.10 mL/min)): precipitation occurs immediately; also recorded: precipitation occurred even during the mixing process and continued after the finish of mixing
- loss of DB-67 during the preparation process ([6]; stable solutions prepared by the present method): < 2%
